According to patent US8637683B2, “Macrocyclic lactone derivatives for the treatment of cancer” (Piramal Enterprises Limited, priority 2009, dated 2014):

Tests used:
[1] = system: panel of 12 human tumor cell lines; experiment: Monolayer assay, panel of 12 human tumor cell lines; assay type: cell-based; details: for IC50 / Mean IC70: mean over panel of 12 human tumor cell lines, test range 0.0001 μM-10 μM; for % Selectivity / Rating (selectivity) / Selectivity Total (cell lines with individual IC70 < 1/3 mean IC70) / in vitro antitumor activity: panel of 12 human tumor cell lines
Description: (§1) Cell lines were routinely passaged once or twice weekly and maintained in culture for upto 20 passages. All cells were grown at 37° C. in a humidified atmosphere with 5% CO2 in RPMI 1640 medium supplemented with 10% (v/v) fetal calf serum (FCS) and 0.1 mg/mL gentamicin (medium and all other components from PAA, Cölbe, Germany). Authenticity of all cell lines was proven at the DSMZ by STR (short tandem repeat) analysis, a PCR based DNA-fingerprinting methodology.
Stock solutions of the test compounds (330 μg/mL in DMSO) were prepared and stored in small aliquots (200 μL) at −20° C. An aliquot of the stock solution was thawed on the day of use and stored at room temperature prior to and during dosing. The subsequent dilutions were done with complete RPMI 1640 cell culture medium as follows: the stock solution was diluted 1:22 followed by serial dilutions finally resulting in a (compared to the test concentration) 15-fold higher concentration. For the final dilution step (1:15), 10 μL/well of the respective compound solution was directly added to 140 μL/well culture medium. Test compounds were tested at […]. Each concentration was evaluated in triplicate.
A modified propidium iodide assay was used to assess the effect of the test compounds on the growth of the human tumor cell lines and was designed as in reference, Anti-cancer Drugs, 6, 522-532, (1995), the disclosure of which is incorporated by reference for the teaching of the assay.
Cells were plated in 96-well flat-bottom microtiter plates at a cell density of 4,000 to 10,000 cells/well. After a 24 h recovery period to allow the cells to resume exponential growth, the test compounds were applied at five concentrations in log increments in triplicates in two independent runs. After 4 days of treatment, the medium with/without test compounds including all floating (i.e., dead) cells was aspirated and replaced by 200 μL of an aqueous propidium iodide (PI) solution (7 μg/mL). To measure the viable cell number, the remaining adherent cells were killed and permeabilized by repeated freezing and thawing and PI fluorescence was measured using the Cytofluor 4000 microplate reader (excitation λ=530 nm, emission λ=620 nm), which was a measure for the number of cells which survived treatment. Pharmacological effects on cell proliferation and survival were expressed as Test/Control×100 (% T/C) values, with T and C representing the fluorescence read-outs for wells with and without test compound, respectively, i.e. T/C represents the ratio of viable cell numbers following incubation of cell line with/without test compound. Based on the T/C values IC50 and IC70 values, being the drug concentration necessary to inhibit cell growth by 50% (T/C=50%) and 70% (T/C=30%), respectively, were determined by plotting compound concentration versus cell viability (T/C). IC-values were calculated based on the principle of linear two-point curve fit.

MDA 231 = experiment: Monolayer assay (modified propidium iodide), MDA 231; assay type: cell-based, human; details: MDA 231, Mammary; 4 days of treatment
Text: (§2) Oncotest GmbH, Germany's proprietary tumor cell line panel comprises 40 cell lines. These cell lines were derived from 15 different tumor histotypes, each represented by 1 to 6 different cell lines. Cell lines were established from cancer of the bladder (3), colon (4), head and neck (1), lung (6), breast (3), pancreas (3), prostate (4), ovary (2), kidney (3), liver (1), stomach (1) and the uteri body (1), as well as from melanoma (3), sarcoma (2) and pleuramesothelioma (3). Out of these 40 cell lines, 24 cell lines were established at Oncotest, from patient-derived tumor xenografts. The other 16 cell lines were either provided by the NCI (Bethesda; MD, USA) or were purchased from ATCC (Rockville, Md., USA) or DSMZ (Braunschweig, Germany).
as §1, with “Authenticity of all cell lines was proven at the DSMZ by STR (short tandem repeat) analysis, a PCR based DNA-fingerprinting methodology.” left out
(§3) Stock solutions of the test compounds (330 μg/mL in DMSO) were prepared and stored in small aliquots (200 μL) at −20° C. […] Each concentration was evaluated in triplicate. […]
(§4) Cells were plated in 96-well flat-bottom microtiter plates at a cell density of 4,000 to 10,000 cells/well. […] To measure the viable cell number, the remaining adherent cells were killed and permeabilized by repeated freezing and thawing and PI fluorescence was measured using the Cytofluor 4000 microplate reader (excitation λ=530 nm, emission λ=620 nm), which was a measure for the number of cells which survived treatment. Pharmacological effects on cell proliferation and survival were expressed as Test/Control×100 (% T/C) values, with T and C representing the fluorescence read-outs for wells with and without test compound, respectively, i.e. T/C represents the ratio of viable cell numbers following incubation of cell line with/without test compound. […] IC-values were calculated based on the principle of linear two-point curve fit. […]

T 24 = experiment: Monolayer assay (modified propidium iodide), T 24; assay type: cell-based, human; details: T 24, Bladder; 4 days of treatment
Text: as §2
as §1, with “Authenticity of all cell lines was proven at the DSMZ by STR (short tandem repeat) analysis, a PCR based DNA-fingerprinting methodology.” left out
as §3, §4

CXF 269L = experiment: Monolayer assay (modified propidium iodide), CXF 269L; assay type: cell-based, human; details: Colon, 4 days of treatment
Text: as §2
as §1, with “Authenticity of all cell lines was proven at the DSMZ by STR (short tandem repeat) analysis, a PCR based DNA-fingerprinting methodology.” left out
as §3, §4

LXF 526L = experiment: Monolayer assay (modified propidium iodide), LXF 526L; assay type: cell-based, human; details: Lung, 4 days of treatment
Text: as §2
as §1, with “Authenticity of all cell lines was proven at the DSMZ by STR (short tandem repeat) analysis, a PCR based DNA-fingerprinting methodology.” left out
as §3, §4

SMILES	IC50 [1]	Mean IC70 [1]	% Selectivity [1]	Rating (selectivity) [1]	Selectivity Total (cell lines with individual IC70 < 1/3 mean IC70) [1]	in vitro antitumor activity [1]	IC70 (MDA 231)	IC70 (T 24)	IC70 (CXF 269L)	IC70 (LXF 526L)
C/C=C/C(O)C(C)/C=C/C(=NOCC(=O)N1CCN(C)CC1)C(C)C(O)C(C)C1OC(=O)/C(OC)=C/C(C)=C/C(C)C(O)C(CC)C(O)C(C)C/C(C)=C/C=C/C1OC (stereo in doubt) [Example 11, (3Z,5E,13E,15E)-18-((5Z,6E,10E)-3,9-Dihydroxy-4,8-dimethyl-5-(2-(4-methylpiperazin-1-yl)-2-oxoethoxyimino)dodeca-6,10-dien-2-yl)-9-ethyl-8,10-dihydroxy-3,17-dimethoxy-5,7,11,13-tetramethyloxacyclooctadeca-3,5,13,15-tetraen-2-one]	0.006 µM	0.020 µM	25%	(+ + +)	3/12	showed in vitro antitumor activity				
C/C=C/C(O)C(C)/C=C/C(=NOCC(=O)NCc1ccc(F)cc1)C(C)C(O)C(C)C1OC(=O)/C(OC)=C/C(C)=C/C(C)C(O)C(CC)C(O)C(C)C/C(C)=C/C=C/C1OC (stereo in doubt) [Example 15, 2-((Z)-((6E,10E)-2-((4E,6E,14E,16Z)-11 Ethyl-10,12-dihydroxy-3,17-dimethoxy-7,9,13,15-tetramethyl-18-oxooxacyclooctadeca-4,6,14,16-tetraen-2-yl)-3,9-dihydroxy-4,8-dimethyldodeca-6,10-dien-5-ylidene)aminooxy)-N-(4-fluorobenzyl)acetamide]	0.001 µM	0.003 µM	50%	(+++) (+++ (% selective > 20%))	6/12	showed in vitro antitumor activity				
C/C=C/C(O)C(C)/C=C/C(=NOCC(=O)O)C(C)C(O)C(C)C1OC(=O)/C(OC)=C/C(C)=C/C(C)C(O)C(CC)C(O)C(C)C/C(C)=C/C=C/C1OC (stereo in doubt) [Example 10, ((Z)-((6E,10E)-2-((4E,6E,14E,16Z)-11-Ethyl-10,12-dihydroxy-3,17-dimethoxy-7,9,13,15-tetramethyl-18-oxooxacyclooctadeca-4,6,14,16-tetraen-2-yl)-3,9-dihydroxy-4,8-dimethyldodeca-6,10-dien-5-ylidene)aminooxy)acetic acid]	0.514 µM	1.258 µM	8%	(+) (+ (4% > selective >= 12%))	1/12	showed in vitro antitumor activity				
C/C=C/C(O)C(C)/C=C/C(=NOCC(=O)N1CCCCC1)C(C)C(O)C(C)C1OC(=O)/C(OC)=C/C(C)=C/C(C)C(O)C(CC)C(O)C(C)C/C(C)=C/C=C/C1OC (stereo in doubt) [Example 13, (3Z,5E,13E,15E)-18-((5Z,6E,10E)-3,9-Dihydroxy-4,8-dimethyl-5-(2-oxo-2-(piperidin-1-yl)ethoxyimino)dodeca-6,10-dien-2-yl)-9-ethyl-8,10-dihydroxy-3,17-dimethoxy-5,7,11,13-tetramethyloxacyclooctadeca-3,5,13,15-tetraen-2-one]	0.03 µM	0.097 µM	17%	(+ +)	2/12	showed in vitro antitumor activity				
C/C=C/C(O)C(C)/C=C/C(=NOCC(=O)N1CCC(N2CCCCC2)CC1)C(C)C(O)C(C)C1OC(=O)/C(OC)=C/C(C)=C/C(C)C(O)C(CC)C(O)C(C)C/C(C)=C/C=C/C1OC (stereo in doubt) [Example 14, (3Z,5E,13E,15E)-18-((5Z,6E,10E)-5-(2-(1,4′-Bipiperidin-1′-yl)-2-oxoethoxyimino)-3,9-dihydroxy-4,8-dimethyldodeca-6,10-dien-2-yl)-9-ethyl-8,10-dihydroxy-3,17-dimethoxy-5,7,11,13-tetramethyloxacyclooctadeca-3,5,13,15-tetraen-2-one]	0.358 µM	0.762 µM	8%	(+) (+ (4% > selective >= 12%))	1/12	showed in vitro antitumor activity				
C/C=C/C(O)C(C)/C=C/C(=N\OC)C(C)C(O)C(C)C1OC(=O)/C(OC)=C/C(C)=C/C(C)C(O)C(CC)C(O)C(C)C/C(C)=C/C=C/C1OC (stereo not shown) [Example 8, (3Z,5E,13E,15E)-18-((5E,6E,10E)-3,9-Dihydroxy-5-(methoxyimino)-4,8-dimethyldodeca-6,10-dien-2-yl)-9-ethyl-8,10-dihydroxy-3,17-dimethoxy-5,7,11,13-tetramethyloxacycloocta deca-3,5,13,15-tetraen-2-one]							≤ 0.3 ng/mL	≤ 0.3 ng/mL	≤ 0.3 ng/mL	≤ 0.3 ng/mL
C/C=C/C(O)C(C)/C=C/C(=NOCC(=O)NCCO)C(C)C(O)C(C)C1OC(=O)/C(OC)=C/C(C)=C/C(C)C(O)C(CC)C(O)C(C)C/C(C)=C/C=C/C1OC (stereo in doubt) [Example 12, 2-((Z)-((6E,10E)-2-((4E,6E,14E,16Z)-11-Ethyl-10,12-dihydroxy-3,17-dimethoxy-7,9,13,15-tetramethyl-18-oxooxacyclooctadeca-4,6,14,16-tetraen-2-yl)-3,9-dihydroxy-4,8-dimethyldodeca-6,10-dien-5-ylidene)aminooxy)-N-(2-hydroxyethyl)acetamide]	0.002 µM	0.006 µM	42%	(+ + +)	5/12	showed in vitro antitumor activity				
